The results in this text go back to the supplement of paper PMC10307832.

Test in all cases: relative viability (nuclei count vs DMSO), 5 days (fraction); higher = more cells survive
Compound in the assay “Zebularine + Crizotinib”: O=c1ncccn1[C@@H]1O[C@H](CO)[C@@H](O)[C@H]1O [Zebularine] + C[C@@H](Oc1cc(-c2cnn(C3CCNCC3)c2)cnc1N)c1c(Cl)ccc(F)c1Cl [Crizotinib] (partner 1 µM)
In short, it runs like this: (§1)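 Cells from lung cancer lines were seeded into 1536-well plates and, one day later, dosed by pin tool. Treatments were either a single drug or a fixed dose of an anchor drug with five library-drug doses (not always all listed) in √10 steps. After 5 days, nuclei were stained in a one-step fixation (final 0.05% Triton X-100, 1% formaldehyde, 1 ug/ml Hoechst) and counted on 4× images, and relative viability is the treated-to-vehicle nuclei ratio, as the median of duplicate plates.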

Compound in the assay “BI-D1870 + Olaparib”: CC(C)CCN1c2nc(Nc3cc(F)c(O)c(F)c3)ncc2N(C)C(=O)C1C [BI-D1870] + O=C(c1cc(Cc2n[nH]c(=O)c3ccccc23)ccc1F)N1CCN(C(=O)C2CC2)CC1 [Olaparib] (partner 8 µM)
In short, it runs like this: as §1

Compound in the assay “Zebularine + Foretinib”: O=c1ncccn1[C@@H]1O[C@H](CO)[C@@H](O)[C@H]1O [Zebularine] + COc1cc2c(Oc3ccc(NC(=O)C4(C(=O)Nc5ccc(F)cc5)CC4)cc3F)ccnc2cc1OCCCN1CCOCC1 [Foretinib] (partner 0.25 µM)
Put shortly: as §1

Compound in the assay “BI-D1870 + AZD7762”: CC(C)CCN1c2nc(Nc3cc(F)c(O)c(F)c3)ncc2N(C)C(=O)C1C [BI-D1870] + NC(=O)Nc1cc(-c2cccc(F)c2)sc1C(=O)N[C@H]1CCCNC1 [AZD7762] (partner 0.2 µM)
Put shortly:
as §1

On to IA-LM, for which the relative viability was found to be 1.07 with Zebularine + Crizotinib (first compound 1 µM); 0.718 with Zebularine + Crizotinib (first compound 3.162 µM); 1.1 in the assay with Zebularine + Crizotinib (first compound 31.62 µM); 0.609 with Zebularine + Crizotinib (first compound 100 µM); 0.812 in the assay with BI-D1870 + Olaparib (first compound 0.04 µM); 0.739 with BI-D1870 + Olaparib (first compound 0.1265 µM). For the same cell line, the relative viability came to 0.913 with BI-D1870 + Olaparib (first compound 0.4 µM); 0.851 with BI-D1870 + Olaparib (first compound 1.265 µM); 0.506 in the assay with BI-D1870 + Olaparib (first compound 4 µM); 1.1 with Zebularine + Foretinib (first compound 1 µM); 1.14 with Zebularine + Foretinib (first compound 3.162 µM); 1.34 with Zebularine + Foretinib (first compound 31.62 µM). Besides, the relative viability with Zebularine + Foretinib (first compound 100 µM) was found to be 0.877.
Take NCI-H520: the relative viability amounted to 0.784 with Zebularine + Crizotinib (first compound 1 µM); 0.717 with Zebularine + Crizotinib (first compound 3.162 µM); 0.429 in the assay with Zebularine + Crizotinib (first compound 10 µM); 0.372 with Zebularine + Crizotinib (first compound 31.62 µM); 0.261 with Zebularine + Crizotinib (first compound 100 µM); 0.336 with BI-D1870 + Olaparib (first compound 0.04 µM). Moreover, the relative viability with BI-D1870 + Olaparib (first compound 0.1265 µM) worked out at 0.355; in the assay with BI-D1870 + Olaparib (first compound 0.4 µM), 0.295; in the assay with BI-D1870 + Olaparib (first compound 1.265 µM), 0.246; with BI-D1870 + Olaparib (first compound 4 µM), 0.162; in the assay with Zebularine + Foretinib (first compound 1 µM) it was 0.895; with Zebularine + Foretinib (first compound 3.162 µM) it was 0.742. For the same cell line, the values for the relative viability with Zebularine + Foretinib (first compound 10 µM), in the assay with Zebularine + Foretinib (first compound 31.62 µM) and in the assay with Zebularine + Foretinib (first compound 100 µM) were 0.419, 0.395 and 0.243, respectively.
On to NCI-H522, for which the relative viability with BI-D1870 + Olaparib (first compound 0.04 µM) came to 0.7; with BI-D1870 + Olaparib (first compound 0.1265 µM), 0.627; in the assay with BI-D1870 + Olaparib (first compound 0.4 µM), 0.67; in the assay with BI-D1870 + Olaparib (first compound 1.265 µM), 0.667; with BI-D1870 + Olaparib (first compound 4 µM) it was 0.62; in the assay with BI-D1870 + AZD7762 (first compound 0.04 µM) it was 0.84. Besides, the relative viability in the assay with BI-D1870 + AZD7762 (first compound 0.1265 µM) is 0.845; in the assay with BI-D1870 + AZD7762 (first compound 0.4 µM), 0.851; with BI-D1870 + AZD7762 (first compound 1.265 µM), 0.935; with BI-D1870 + AZD7762 (first compound 4 µM) it was 0.911.
As for NCI-H661, the relative viability was determined as 1.24 in the assay with Zebularine + Crizotinib (first compound 1 µM); 1 with Zebularine + Crizotinib (first compound 3.162 µM); 1.02 in the assay with Zebularine + Crizotinib (first compound 10 µM); 1.05 with Zebularine + Crizotinib (first compound 31.62 µM); 0.997 with Zebularine + Crizotinib (first compound 100 µM); 0.781 in the assay with BI-D1870 + Olaparib (first compound 0.04 µM). The relative viability came to 0.746 in the assay with BI-D1870 + Olaparib (first compound 0.1265 µM); 0.738 in the assay with BI-D1870 + Olaparib (first compound 0.4 µM); 0.737 in the assay with BI-D1870 + Olaparib (first compound 1.265 µM); 0.58 in the assay with BI-D1870 + Olaparib (first compound 4 µM); 0.989 with Zebularine + Foretinib (first compound 1 µM); 1.04 in the assay with Zebularine + Foretinib (first compound 3.162 µM). Also, the relative viability with Zebularine + Foretinib (first compound 10 µM) stood at 0.991; with Zebularine + Foretinib (first compound 31.62 µM), 1.18; with Zebularine + Foretinib (first compound 100 µM), 1.02.
Consider NCI-H1299, for which the relative viability in the assay with Zebularine + Crizotinib (first compound 1 µM) is 0.963; in the assay with Zebularine + Crizotinib (first compound 3.162 µM), 0.921; with Zebularine + Crizotinib (first compound 10 µM) it was 0.788; with Zebularine + Crizotinib (first compound 31.62 µM) it was 0.893; with Zebularine + Crizotinib (first compound 100 µM), 0.566; with BI-D1870 + Olaparib (first compound 0.04 µM) it was 1.04. Besides, the relative viability in the assay with BI-D1870 + Olaparib (first compound 0.1265 µM) stood at 1; with BI-D1870 + Olaparib (first compound 0.4 µM), 0.996; with BI-D1870 + Olaparib (first compound 1.265 µM) it was 0.892; in the assay with BI-D1870 + Olaparib (first compound 4 µM) it was 0.545; with Zebularine + Foretinib (first compound 1 µM) it was 1.12; in the assay with Zebularine + Foretinib (first compound 3.162 µM), 1.05. Besides, the results for the relative viability with Zebularine + Foretinib (first compound 10 µM), with Zebularine + Foretinib (first compound 31.62 µM) and with Zebularine + Foretinib (first compound 100 µM) were 0.947, 1.11 and 0.549, respectively.
With NCI-H1395, the relative viability in the assay with BI-D1870 + Olaparib (first compound 0.04 µM) stood at 0.448; in the assay with BI-D1870 + Olaparib (first compound 0.1265 µM), 0.436; in the assay with BI-D1870 + Olaparib (first compound 0.4 µM), 0.429; in the assay with BI-D1870 + Olaparib (first compound 1.265 µM), 0.489; with BI-D1870 + Olaparib (first compound 4 µM), 0.406; with Zebularine + Foretinib (first compound 1 µM), 0.852. The relative viability with Zebularine + Foretinib (first compound 3.162 µM) was 0.961; in the assay with Zebularine + Foretinib (first compound 10 µM), 0.772; in the assay with Zebularine + Foretinib (first compound 31.62 µM), 0.608; in the assay with Zebularine + Foretinib (first compound 100 µM), 0.445; in the assay with BI-D1870 + AZD7762 (first compound 0.04 µM), 0.398; in the assay with BI-D1870 + AZD7762 (first compound 0.1265 µM), 0.374. For the same cell line, the relative viability with BI-D1870 + AZD7762 (first compound 0.4 µM) turned out to be 0.42; with BI-D1870 + AZD7762 (first compound 1.265 µM), 0.427; with BI-D1870 + AZD7762 (first compound 4 µM), 0.454.
With NCI-H1563, the relative viability was 0.877 with Zebularine + Crizotinib (first compound 1 µM); 0.873 with Zebularine + Crizotinib (first compound 3.162 µM); 0.849 in the assay with Zebularine + Crizotinib (first compound 10 µM); 0.935 with Zebularine + Crizotinib (first compound 31.62 µM); 0.828 in the assay with Zebularine + Crizotinib (first compound 100 µM); 0.915 with Zebularine + Foretinib (first compound 1 µM). Moreover, the relative viability with Zebularine + Foretinib (first compound 3.162 µM) was 0.952; with Zebularine + Foretinib (first compound 10 µM), 0.922; in the assay with Zebularine + Foretinib (first compound 31.62 µM), 0.991; with Zebularine + Foretinib (first compound 100 µM) it was 0.898.
For the cell line NCI-H1623, the relative viability with Zebularine + Foretinib (first compound 1 µM) came to 1; with Zebularine + Foretinib (first compound 3.162 µM), 0.733; with Zebularine + Foretinib (first compound 10 µM) it was 0.723; with Zebularine + Foretinib (first compound 31.62 µM) it was 0.791; with Zebularine + Foretinib (first compound 100 µM) it was 0.484.
In the case of NCI-H1648, the relative viability was found to be 0.919 with BI-D1870 + Olaparib (first compound 0.04 µM); 0.691 with BI-D1870 + Olaparib (first compound 0.1265 µM); 0.633 with BI-D1870 + Olaparib (first compound 1.265 µM); 0.846 in the assay with BI-D1870 + Olaparib (first compound 4 µM); 0.67 with BI-D1870 + AZD7762 (first compound 0.04 µM); 0.677 with BI-D1870 + AZD7762 (first compound 0.1265 µM). For the same cell line, the relative viability in the assay with BI-D1870 + AZD7762 (first compound 1.265 µM) amounted to 0.646; in the assay with BI-D1870 + AZD7762 (first compound 4 µM), 0.57.
Take NCI-H1650: the relative viability was found to be 1.04 with Zebularine + Crizotinib (first compound 1 µM); 0.788 in the assay with Zebularine + Crizotinib (first compound 3.162 µM); 1.13 in the assay with Zebularine + Crizotinib (first compound 31.62 µM); 0.86 in the assay with Zebularine + Crizotinib (first compound 100 µM); 0.722 in the assay with BI-D1870 + Olaparib (first compound 0.04 µM); 0.767 in the assay with BI-D1870 + Olaparib (first compound 0.1265 µM). The relative viability in the assay with BI-D1870 + Olaparib (first compound 0.4 µM) was found to be 0.788; with BI-D1870 + Olaparib (first compound 1.265 µM) it was 0.943; with BI-D1870 + Olaparib (first compound 4 µM), 0.817; with Zebularine + Foretinib (first compound 1 µM), 1.26; with Zebularine + Foretinib (first compound 3.162 µM), 1.02; with Zebularine + Foretinib (first compound 10 µM) it was 0.905. Moreover, the relative viability was 1.46 with Zebularine + Foretinib (first compound 31.62 µM) and 1.07 in the assay with Zebularine + Foretinib (first compound 100 µM).
As for NCI-H1792, the relative viability with Zebularine + Crizotinib (first compound 1 µM) was 1.06; with Zebularine + Crizotinib (first compound 3.162 µM), 0.876; in the assay with Zebularine + Crizotinib (first compound 10 µM), 0.381; with Zebularine + Crizotinib (first compound 31.62 µM), 0.386; with Zebularine + Crizotinib (first compound 100 µM), 0.339; with BI-D1870 + Olaparib (first compound 0.04 µM) it was 0.434. Also, the relative viability with BI-D1870 + Olaparib (first compound 0.1265 µM) was determined as 0.334; with BI-D1870 + Olaparib (first compound 0.4 µM), 0.369; in the assay with BI-D1870 + Olaparib (first compound 1.265 µM), 0.812; in the assay with BI-D1870 + Olaparib (first compound 4 µM), 0.315; in the assay with BI-D1870 + AZD7762 (first compound 0.04 µM), 0.728; with BI-D1870 + AZD7762 (first compound 0.1265 µM), 0.599. Besides, the relative viability came out at 0.72 with BI-D1870 + AZD7762 (first compound 0.4 µM), 0.72 in the assay with BI-D1870 + AZD7762 (first compound 1.265 µM) and 0.527 with BI-D1870 + AZD7762 (first compound 4 µM).
